Measurements reported in patent US8158587B2, “Compound having histone deacetylase-inhibiting activity, and pharmaceutical composition comprising the compound as an active ingredient” (Kyushu Institute of Technology, priority 2006, dated 2012).

Columns and labels:
murine HDAC6 = target: T1, murine HDAC6 (Mus musculus, UniProt Q9Z2V5); test: HDAC-inhibiting activity, coumarin-labeled acetylated histone peptide assay; format: biochemical; details: murine HDAC6 from transfected 293T cells; 37° C., 30 minutes
T1 construct: made in house; host or cells: 293T cells (transient transfection, anti-FLAG immunoprecipitation, FLAG peptide elution)
T1 sequence (Q9Z2V5 1-1149): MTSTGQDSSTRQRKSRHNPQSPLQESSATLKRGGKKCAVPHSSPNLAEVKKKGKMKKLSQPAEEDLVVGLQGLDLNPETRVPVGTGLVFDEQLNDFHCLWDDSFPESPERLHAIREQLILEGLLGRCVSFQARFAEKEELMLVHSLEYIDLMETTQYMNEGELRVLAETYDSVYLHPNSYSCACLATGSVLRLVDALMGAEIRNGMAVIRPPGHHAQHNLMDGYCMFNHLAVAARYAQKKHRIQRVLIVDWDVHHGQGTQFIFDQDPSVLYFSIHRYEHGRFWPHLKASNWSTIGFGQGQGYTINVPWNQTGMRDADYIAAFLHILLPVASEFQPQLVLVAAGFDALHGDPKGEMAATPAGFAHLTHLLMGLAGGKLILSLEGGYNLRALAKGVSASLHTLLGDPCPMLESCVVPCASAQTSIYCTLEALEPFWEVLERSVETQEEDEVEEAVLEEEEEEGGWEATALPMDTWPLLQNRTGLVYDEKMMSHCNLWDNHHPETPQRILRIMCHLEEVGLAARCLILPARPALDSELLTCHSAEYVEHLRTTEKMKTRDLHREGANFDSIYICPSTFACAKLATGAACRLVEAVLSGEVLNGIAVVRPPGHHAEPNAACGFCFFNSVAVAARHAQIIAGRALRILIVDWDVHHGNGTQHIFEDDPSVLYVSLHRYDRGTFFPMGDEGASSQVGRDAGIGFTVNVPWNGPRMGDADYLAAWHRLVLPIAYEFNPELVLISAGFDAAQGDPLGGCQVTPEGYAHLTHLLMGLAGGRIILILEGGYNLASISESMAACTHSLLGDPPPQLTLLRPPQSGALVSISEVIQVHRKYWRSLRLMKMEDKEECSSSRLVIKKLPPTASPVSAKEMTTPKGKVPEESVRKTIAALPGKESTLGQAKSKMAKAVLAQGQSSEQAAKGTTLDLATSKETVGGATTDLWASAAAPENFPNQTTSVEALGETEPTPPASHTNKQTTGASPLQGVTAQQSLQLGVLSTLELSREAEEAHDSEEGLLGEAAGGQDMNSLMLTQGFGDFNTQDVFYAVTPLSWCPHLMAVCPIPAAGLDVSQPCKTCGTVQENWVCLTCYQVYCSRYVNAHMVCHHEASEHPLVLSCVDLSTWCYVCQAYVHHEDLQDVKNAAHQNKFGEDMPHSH

[1] = tested on: brain tumor cell line SF-295; test: Human cancer cell line panel, proliferation (sulforhodamine B); format: cell-based; details: SF-295, 2 days of cultivation; read-out: 50% inhibitory concentration, proliferation
[2] = tested on: brain tumor cell line SF-268; test: as above; format: cell-based; details: SF-268, 2 days of cultivation; read-out: 50% inhibitory concentration, proliferation

| SMILES | IC50 (murine HDAC6) | IC50 [1] | IC50 [2] |
| --- | --- | --- | --- |
| CC1(C)NC(=O)[C@H](CCCCCSCc2ccncc2)NC(=O)[C@H]2CCCN2C(=O)[C@H](Cc2ccccc2)NC1=O [Ky-26, cyclo(-L-Am7(4-pyridylmethyl)-Aib-L-Phe-D-Pro-)] | 1.4 µM |  |  |
| CC(=O)CSCCCCC[C@@H]1NC(=O)[C@H]2CCCN2C(=O)[C@H](Cc2ccccc2)NC(=O)C(C)(C)NC1=O [Ky-72, cyclo(-L-Am7(acetonyl)-Aib-L-Phe-D-Pro-)] |  | ≤ 0.1 µM | ≤ 0.1 µM |
